Results on ten compounds are retold here after PMC6345492, “Thioguanine-based DENV-2 NS2B/NS3 protease inhibitors: Virtual screening, synthesis, biological evaluation and molecular modelling” (PLoS ONE, 2019).

Like-named read-outs stand apart in the source and are kept apart here.

The target of assay [1] is T1, DENV-2 NS2B/NS3pro (Dengue virus type 2, UniProt P14340).
T1 construct: pQE30.CF40.gly(T).NS3pro expression plasmid; 6x-His (N); glycine linker (gly(T)) joining CF40 to NS3pro (C); made in house; host or cells: Escherichia coli strain XL1-Blue
T1 sequence (P14340 1398-1437): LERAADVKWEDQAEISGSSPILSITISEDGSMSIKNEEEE
T1 sequence (P14340 1476-1653): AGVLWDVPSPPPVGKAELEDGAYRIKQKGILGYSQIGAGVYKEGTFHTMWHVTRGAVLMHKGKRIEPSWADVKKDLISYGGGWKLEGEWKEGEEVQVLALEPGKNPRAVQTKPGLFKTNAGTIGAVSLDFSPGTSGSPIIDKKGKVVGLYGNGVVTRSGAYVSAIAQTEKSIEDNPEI
Put plainly: DENV-2 NS2B/NS3pro protease inhibition assay (fluorogenic Boc-GRR-MCA substrate). It counts as biochemical. To be noted: for IC50: 3 μM protease, 25 μM substrate. As for the experimental part:
The DENV-2 NS2B/NS3pro expression was carried out according to the established method by Yusof et al., (2000) with minor modifications according to published articles. The plasmid encoding the NS2B/NS3 protease sequence from DENV-2 was transformed into Escherichia coli strain XL1-Blue transformed with pQE30.CF40.gly(T).NS3pro expression plasmid were grown in LB medium containing 10 μg/ml ampicillin at 37°C until the OD600 reached 0.6. First, the cells were incubated at 37°C, 200 rpm until OD600 reached ~0.6. One ml of isopropyl-β-D-thiogalactopyranoside (0.5 mM in LB medium) was added to the bacterial cells for 2 hours to induce protein expression. Expression of the recombinant protein was induced by the addition of […] IPTG and the culture was incubated for 2 hours.
The cells were harvested by centrifugation at 8000 rpm (Sorvall RC-5B Refrigerated Superspeed centrifuge) for 15 minutes at […]. The cell pellets were thawed (1 g) and resuspended in lysis buffer (5 mL) followed by mixing them using vortex until milky. For purification, cells were lysed by sonication conducting (6 times 15-second pulse, duty cycle 10%, output control no 3) using Ultrasonic Cell Disruptor, Branson Sonifier 450, Germany. The lysate was incubated on ice for 1 hour and then centrifuged at 8000 rpm for 1 hour at 4°C. The soluble 6x-His-NS2B/NS3protease in its native form was filtered ([…]), batch-bound to 2 x 2 ml Ni^2+-NTA (nickel-nitrilotriacetic acid) resin (pre-equilibrated with column buffer) and incubated overnight at 4°C. The resin was cleaned up from the unbound fraction by centrifugation and the resin with bound protein was collected and loaded into columns (Bio-Rad; 1 x 3 cm). The gradient technique columns were washed extensively with 3 x 15 ml of wash buffer and further eluted with 10 ml of elution buffer for each column while being monitored using Bio-Rad Bradford protein assay. The purified protein was then analysed with 12% SDS-PAGE, pooled and stored at -80°C for further use in the dengue protease activity and inhibition studies. The dengue protease activity assay was developed as previously described with a slight modification. Briefly, the assay system comprised of 200 mM Tris-HCl (pH 8.5) buffer, DENV-2 NS2B/NS3pro and Boc-GRR-MCA as the substrate. Protease optimum assay was executed to ascertain maximum protease activity at constant concentration of the substrate (25 μM). The protease concentrations were varied within 0–10 μM. The 7-Amino-4-methylcoumarin (AMC) produced was measured as fluorescence intensity at λexcitation of 340 nm and λemission of 440 nm by using ELISA modulus microplate reader.
The compounds were also checked for its requirement to pass the pan assay interference compounds (PAINS) (http://cbligand.org/PAINS/) before tested for their inhibition activities against DENV-2 NS2B/NS3pro at a range of concentrations (0 to 300 μg/mL). […] The concentration of the protease being used was 3 μM initially incubated with the compound for 10 minutes at 37°C with 200 rpm of rotation. Subsequently, 25 μM of the substrate was added and the incubation was further prolonged for 60 minutes. The fluorescence intensity at 340/ 440 nm was measured as the AMC byproduct was released upon the peptide substrate cleavage by the protease. The experiments were triplicated and Panduratin A was used as the positive control.

For assay [2], the target named is T1, DENV-2 NS2B/NS3pro. More on the design: method as in PMID 16621533. To be noted: competitive inhibition; cited from earlier work.
The mark [3] stands for this setting: TG derivatives, Table 2, read-out: IC50.
The mark [4] stands for this setting: six newly designed compounds, Table 3, read-out: IC50.

By IC50 is commonly meant the concentration that gives 50% inhibition. For `COc1cccc(S(=O)(=O)Nc2nc(S)c3nc[nH]c3n2)c1` [Compound 4], the IC50 on DENV-2 NS2B/NS3pro [1] (setting [3]) is 68 µM. Same read-out and setting: with `COc1ccc(S(=O)(=O)Nc2nc(S)c3nc[nH]c3n2)cc1` [Compound 5] the figure was 55 µM. Take `CCC(=O)Nc1nc(SC(=O)CC)c2nc[nH]c2n1` [Compound 16]: the IC50 at DENV-2 NS2B/NS3pro [1] (setting [4]) came to 97 µM. Turning to `CC(C)C(=O)Nc1nc(SC(=O)C(C)C)c2nc[nH]c2n1` [Compound 17], on DENV-2 NS2B/NS3pro [1] (setting [4]), the IC50 stood at 80 µM. On the same count and under the same terms, next, `CCCCC(=O)Nc1nc(SC(=O)CCCC)c2nc[nH]c2n1` [Compound 18]: 0.38 µM; `CCCCC(=O)Nc1nc(SCc2ccccc2)c2nc[nH]c2n1` [Compound 19]: 54 µM; `CC(C)Cn1cnc2c(SCc3cccc4ccccc34)nc(N)nc21` [Compound 20]: 258 µM.

Consider `CCCCC(=O)Nc1nc(SCc2ccccc2)c2ncn(Cc3ccccc3)c2n1` [Compound 21], for which, at DENV-2 NS2B/NS3pro [1] (setting [4]), the IC50 is 16 µM.

The term Ki denotes a dissociation constant, usually derived from enzyme kinetics or from competition with a known ligand. For the compound `COc1cc(O)c(C(=O)[C@@H]2[C@H](CC=C(C)C)C(C)=CC[C@H]2c2ccccc2)c(O)c1` [Panduratin A, panduratin A, reference compound], the Ki at DENV-2 NS2B/NS3pro [2] was 25 µM. Besides, on DENV-2 NS2B/NS3pro [1] (NCI diversity set hits, read-out: Experimental IC50), the IC50 was determined as 56 µM. What is called inhibition is the percentage by which the read-out fell short of the control. A higher inhibition goes with a response far below the control. On DENV-2 NS2B/NS3pro [1], `Nc1nc2nc[nH]c2c(=S)[nH]1` [TG, thioguanine] displayed an inhibition at 200 µg/mL of 56%. Further, the IC50 at DENV-2 NS2B/NS3pro [1] (setting [3]) amounted to 753 µM.
